Consider one molecule from patent US20200289521A1, “USE OF VITAMIN K IN COMBINATION WITH ANTICOAGULANTS” (KAYDENCE PHARMA AS, priority 2019, published 2020).

The structures appear in SMILES notation.

The experiment can be described thus: Thrombin Time (TT), Coag-Chrom 3003, treated Sprague-Dawley rats. The note with it: added to dabigatran and to rivaroxaban. Format: in vivo. Here is the method:
To perform the study, 45 wild-type male Sprague-Dawley and 45 transgenic male Ren-2 rats [TGR(mREN-2)27] at the age of 10-11 weeks at the beginning of the treatment period were purchased from animal facility IKEM-CEM Institute of Clinical and Experimental Medicine (Prague, Czech Republic). All animals in the experiment were housed in individually ventilated cages (2-3 rats per cage) and kept in the animal rooms of JCET at a relative humidity of 55±10%, a temperature of 22±2° C., and a light cycle of 7 AM to 7 PM. The rats had free access to food and water. After delivery, animals were randomly divided into 10 experimental groups (5 or 10 rats per group), as indicated below in Table 1.
Four days before the start of the treatment, the first part of animals' body weight and food intake was measured in selected representative three cages (rats n=9) to calculate the appropriate amount of tested compounds required for addition to the diet to obtain the dosing indicated in Table 1. It was estimated that food intake was approximately 30 g of chow per rat per day. […] The body mass of the rats was measured at the beginning and at the end of treatment.
Prothrombin Time (PT), activated Partial Thromboplastin Time (aPTT), Thrombin Time (TT) and fibrinogen levels (Clauss method) were determined according to the manufacturer's instructions using Coag-Chrom 3003 apparatus (Bio-ksel, Grudziadz, Poland). […]

`CC(C)=CCC/C(C)=C/CC/C(C)=C/CC/C(C)=C/CC/C(C)=C/CC/C(C)=C/CC/C(C)=C/CC1=C(C)C(=O)c2ccccc2C1=O` [vitamin K2 (MK-7)]: the “increase of thrombin time by addition of vitamin K2 (MK-7)” value was 5-7%.
